From patent EP3045469A1, “POLYMYXIN DERIVATIVE AND USES THEREOF” (priority 2015, dated 2016)
Several values for one entry are separate records, joined by “and”; a condition that tells them apart may be missing. Equal entries are not always repeated. Entries after “also recorded” stand apart in the source; their conditions may differ. Where two headings read alike, the source gives them in different places. Where a SMILES comes first, the peptide text is derived from it. Bridges are numbered along the chain shown (N, C = ends). [ ]: non-standard residue; d: D form. The star is where a group is joined. Octanoyl = CCCCCCCC(=O)*; Dab = NCC[C@H](N)C(=O)O; Abu = CC[C@H](N)C(=O)O

Tests used:
K. pneumoniae JMI 27068 = experiment: MIC assay (CLSI broth microdilution; checkerboard with rifampin); assay type: cell-based, Klebsiella pneumoniae; details: polymyxin-nonsusceptible strain
Protocol: (§1) Synergy studies were performed by using polymyxin derivatives in combination with rifampin, a model compound for such antibacterial agents that the intact outer membrane of Gram-negative bacteria acts as a permeability barrier.

[1] = 7-day intravenous toxicity (nephrotoxicity) study in cynomolgus monkeys; details: for kidney injury markers (S-BUN, S-Crea, U-NAG/Crea, U-GGT/Crea) / animals euthanized due to severe nephrotoxic effects: IV infusion TID, seven days; for animals euthanized due to severe nephrotoxic effects: 3 animals per group
Protocol: In vivo toxicity and toxicokinetic studies were performed by using cynomolgus monkeys. The laboratory that performed the animal studies is accredited by the Association for Assessment and Accreditation of Laboratory Animal Care (AAALAC), has an Animal Welfare Assurance issued by the Office of Laboratory Animal Welfare (OLAW), is registered with the United States Department of Agriculture (USDA), and has an Institutional Animal Care and Use Committee (IACUC) responsible for compliance with applicable laws and regulations concerning the humane care and use of laboratory animals.
Naive female cynomolgus monkeys were acclimatized to study room for 28 days during which each animal was implanted with a permanent indwelling femoral catheter to permit continuous intravenous infusions. The animals were allowed surgical recovery period of at least 2 weeks before initiating dosing.
Polymyxin B sulfate was from Sigma-Aldrich (catalogue number P0972, lot number BCBF8382V). On each day of use, appropriate quantities of NAB739, NAB815 or polymyxin B were weighed and dissolved in appropriate volumes of sterile saline to prepare a stock solution for each test article and positive control. A correction factor was used in the stock solution preparation to account for both the purity and sulfate content in each test article. Accordingly, the dose (such as 36 mg/kg/d) refers to the dose of the pure peptide as its free base form, not as its sulfate salt.
The doses were the following: polymyxin B 18 mg/kg/d (Group 1), polymyxin B 24 mg/kg/d (Group 2), NAB739 24 mg/kg/d (Group 3), NAB739 36 mg/kg/d (Group 4), NAB815 24 mg/kg/d (Group 5), NAB815 36 mg/kg/d (Group 6). Three animals were included in each study groups.
(§2) For seven days, the animals were dosed by intravenous (IV) infusion three times daily (TID) at a dose volume of 10 mL/kg for 1 hour (± 10 minutes), 8 ± 0.5 hours apart. The day of initial dose administration was designated study Day 1, with subsequent days consecutively numbered. Days prior to the initial dose administration were consecutively numbered with the final day of acclimation referenced as Day -1.
(§3) The following parameters were evaluated at designed intervals: clinical observations, body weights, clinical pathology (hematology, coagulation, serum chemistry, urinalysis including urine sediments and urine chemistry), toxi-cokinetics (plasma and urine) and anatomic pathology (kidney). In cases of animals sacrificed on an unscheduled basis, samples were taken on the day of the sacrifice.
On the day of necropsy, animals were sedated with ketamine, weighed, and anesthetized with an intravenous injection of a commercial pentobarbital and phenytoin solution, followed by exsanguinations.
At necropsy, gross observations and organ weights were recorded, and specific tissues were collected. Histopathology was conducted on sections of kidney stained with hematoxylin and eosin (H&E).
The figures also show Urine N-acetyl-β-D-glucosaminidase/urine creatinine ratio (U-NAG/Crea; Fig. 3) and Urine Gamma Glutamyltransferase/urine creatinine ratio (U-GGT/Crea; Fig. 4), both urine biomarkers for kidney injury, in those animals. S-Crea and U-Crea were measured by using an Olympus Analyzer (OA) and the modified Jaffe method, S-BUN by using OA and urease/L-glutamate dehydrogenase. U-NAG was measured by using OA/enzymatic, and U-GGT by using OA and glutamyl-carboxy-p-nitroanilide IFCC.
The presence of the following nephropathological parameters was recorded in each animal: tubular basophilia (regeneration), tubular degeneration/necrosis, infiltration (by mononuclear and/or mixed inflammatory cells), tubular dilatation, and tubular casts.

A. baumannii CMI 417 = experiment: MIC assay (CLSI broth microdilution; checkerboard with rifampin); assay type: cell-based, Acinetobacter baumannii; details: polymyxin-nonsusceptible strain
Protocol: as §1

A. baumannii ATCC 19606 = tested on: A. baumannii ATCC 19606
Protocol: as §1

K. pneumoniae ATCC 43816 = tested on: K. pneumoniae ATCC 43816
Protocol: as §1

K. pneumoniae JMI 27072 = tested on: K. pneumoniae JMI 27072
Protocol: as §1

A. baumannii JMI 48125 = tested on: A. baumannii JMI 48125
Protocol: as §1

E. coli ATCC 25922 = tested on: E. coli ATCC 25922
Protocol: as §1

P. aeruginosa ATCC 27853 = tested on: P. aeruginosa ATCC 27853
Protocol: as §1

E. coli JMI 3328 = tested on: E. coli JMI 3328
Protocol: as §1

P. aeruginosa JMI 7445 = tested on: P. aeruginosa JMI 7445
Protocol: as §1

E. coli JMI 109 = experiment: MIC assay (CLSI broth microdilution; checkerboard with rifampin); assay type: cell-based, Escherichia coli; details: polymyxin-nonsusceptible strain
Protocol: as §1

[2] = Toxicokinetics (plasma and urine levels by LC-MS/MS) in cynomolgus monkeys; details: for urinary recoveries (0-8 h urine collection) / urine concentrations (in 0-8 h urine collection): 36 mg/kg/d; for concentration in the urine: after infusion at 8 mg/kg, highest found either in the 0-4 h or 4-8 h sample, given for each animal; for concentration in the urine / 0-8 h recovery in urine: 8 mg/kg; for 0-8 h recovery in urine: after the infusion of 8 mg/kg, percentages given for each animal
Protocol: as §2, §3
Plasma and urine concentrations for toxicokinetic (TK) studies were determined by using liquid chromatograph interfaced with a mass spectrometer after precipitation of proteins. A sample (100 µL) was mixed with internal standard solution in water:formic acid (99:1 v/v; […]). Then, 600µL of 100:1 acetonitrile:formic acid was added. The plates were centrifuged at 3200 rpm for 5 minutes. Using a Tomtec Quadra96, a 450 µL aliquot was transferred to a new 96-well plate and dried under nitrogen at 40°C. Then, 200 µL of water:methanol:formic acid (85:15:1 1 v/v) was added and the plate sealed for LC-MS/MS injection. LC-MS system consisted of Waters Acquity liquid chromatograph interfaced with a Thermo Scientific TSQ Quantitative triple quadrupole MS with ionization in the positive ion mode. Each sample (20 µL) was injected onto a Waters Acquity BEH Shield RP18 column (2.1 x 50 mm; 1.7 µm) equilibrated at 50°C. Mobile Phase A was 85:15:1 v/v water:methanol:formic acid. Mobile Phase B was 50:50:1 v/v acetonitrile:methanol:formic acid.
Peak area ratios from the calibration standard responses were regressed using a (1/concentration^2) linear fit for polymyxin B using colistin as the internal standard. For NAB739 and NAB815, peak areas from the calibration standard responses were regressed using a (1/concentration^2) quadratic fit (without the use of an internal standard).
Toxicokinetic analysis was performed by using WinNonlin Phoenix version 6.3 software (Pharsight, Cary, NC). For plasma TK, noncompartmental IV infusion model was used.
The data is from the cynomolgus monkey studies described in the Example 3, where the peptides were administered as a 1-hour intravenous infusion thrice a day. The plasma and urine levels of the peptides were determined as in Example 3.

[3] = alone, Müller-Hinton II broth, 35°C, 20 hours
[4] = in combination with rifampin (0.25 µg/mL), duplicate checkerboard assays

Structure (SMILES) | MIC (K. pneumoniae JMI 27068; [3]) [µg/mL] | MIC (K. pneumoniae JMI 27068; [4]) [µg/mL] | kidney injury markers (S-BUN, S-Crea, U-NAG/Crea, U-GGT/Crea) ([1]; 24 mg/kg/d) | animals euthanized due to severe nephrotoxic effects ([1]; 36 mg/kg/d) | MIC (A. baumannii CMI 417; [3]) [µg/mL] | MIC (A. baumannii CMI 417; [4]) [µg/mL] | MIC (A. baumannii ATCC 19606; [3]) [µg/mL] | MIC (A. baumannii ATCC 19606; [4]) [µg/mL] | MIC (K. pneumoniae ATCC 43816; [3]) [µg/mL] | MIC (K. pneumoniae JMI 27072; [3]) [µg/mL] | MIC (K. pneumoniae JMI 27072; [4]) [µg/mL] | MIC (A. baumannii JMI 48125; [3]) [µg/mL] | MIC (A. baumannii JMI 48125; [4]) [µg/mL] | MIC (E. coli ATCC 25922; [3]) [µg/mL] | MIC (P. aeruginosa ATCC 27853; [4]) [µg/mL] | MIC (E. coli JMI 3328; [3]) [µg/mL] | MIC (P. aeruginosa JMI 7445; [3]) [µg/mL] | MIC (P. aeruginosa JMI 7445; [4]) [µg/mL] | MIC (E. coli JMI 109; [3]) [µg/mL] | MIC (E. coli JMI 109; [4]) [µg/mL] | other results
CCCCCCCC(=O)N[C@H](C(=O)N[C@H](CO)C(=O)N[C@H]1CCNC(=O)[C@H]([C@@H](C)O)NC(=O)[C@H](CCN)NC(=O)[C@H](CCN)NC(=O)[C@H](CC(C)C)NC(=O)[C@@H](Cc2ccccc2)NC(=O)[C@H](CCN)NC1=O)[C@@H](C)O [NAB739, octanoyl -Thr - DSer-[cyclo-α,γDab - αDab - DPhe- Leu - αDab -αDab - Thr]] (Octanoyl-T[dS][Dab][Dab][dF]L[Dab][Dab]T; lactam 3-C) | 128 | 2 | one animal receiving NAB739 displayed marked increase in S-Crea | One animal | 128 | 2 | 4 | 0.5 | 4 | 2 to 4 | 1 | 2 to 4 | 0.5 | 2 | 4 to 8 | 2 | 4 | 4 | 32 | 1 | MIC (K. pneumoniae ATCC 43816): 1 to 2 µg/mL; MIC (E. coli ATCC 25922): 1 µg/mL; MIC (E. coli JMI 3328): 1 µg/mL; urinary recoveries (0-8 h urine collection) ([2]; day 1, per animal): 20.4% and 26.4%; urine concentrations (in 0-8 h urine collection) ([2]; day 1, per animal): 92 µg/mL and 33 µg/mL and 82 µg/mL; urinary recoveries (0-8 h urine collection) ([2]; day 7, per animal): 30.6% and 55.8%; urine concentrations (in 0-8 h urine collection) ([2]; day 7, per animal): 268 µg/mL and 348 µg/mL; concentration in the urine [2]: 80 µg/mL and 140 µg/mL and 155 µg/mL; 0-8 h recovery in urine [2]: up to 20 % of the dose and ≤ 91 % of the dose and ≤ 92 % of the dose
CCCCCCCC(=O)N[C@@H](CCN)C(=O)N[C@H](C(=O)N[C@@H](C(=O)N[C@H]1CCNC(=O)[C@H]([C@@H](C)O)NC(=O)[C@H](CCN)NC(=O)[C@H](CC)NC(=O)[C@H](CC(C)C)NC(=O)[C@@H](Cc2ccccc2)NC(=O)[C@H](CCN)NC1=O)[C@H](C)O)[C@@H](C)O [NAB815, octanoyl - αDab -Thr - DThr-[cyclo-α,yDab - αDab - DPhe- Leu -Abu -αDab - Thr]] (Octanoyl-[Dab]T[dT][Dab][Dab][dF]L[Abu][Dab]T; lactam 4-C) | 128 | 4 | None of the parameters was elevated | underwent no prescheduled necropsy | 256 | 2 | 4 | 0.5 to 2 | 2 to 4 | 2 to 4 | 1 to 2 | 2 | 0.5 to 2 | 2 | >8 | 4 | 8 | 4 | 128 | 1 | kidney injury markers (S-BUN, S-Crea, U-NAG/Crea, U-GGT/Crea) ([1]; 36 mg/kg/d): only minor if any elevations in the four parameters; kidney histopathology findings (nephropathological parameters) ([1]; 36 mg/kg/d, H&E kidney sections, five parameters graded 0 no significant findings, 1 minimal, 2 mild, 3 moderate, 4 marked): moderate findings, both in one parameter only; also recorded: no other than minimal or mild findings; MIC (K. pneumoniae ATCC 43816; [4]): 1 µg/mL; MIC (E. coli ATCC 25922; [4]): 1 µg/mL; MIC (P. aeruginosa ATCC 27853; [3]): 16 µg/mL; MIC (E. coli JMI 3328; [4]): 1 µg/mL; urinary recoveries (0-8 h urine collection) ([2]; day 1, per animal): 14.3% and 20.9% and 36.3%; urine concentrations (in 0-8 h urine collection) ([2]; day 1, per animal): 173 µg/mL and 265 µg/mL and 114 µg/mL; urinary recoveries (0-8 h urine collection) ([2]; day 7, per animal): 40.5% and 41.9%; urine concentrations (in 0-8 h urine collection) ([2]; day 7, per animal): 17 µg/mL and 62 µg/mL and 149 µg/mL; concentration in the urine [2]: 175 µg/mL and 225 µg/mL and 260 µg/mL; 0-8 h recovery in urine [2]: up to 38 % of the dose and ≤ 55 % of the dose and ≤ 88 % of the dose
